Source: ChEMBL document CHEMBL1126625, “7-Azetidinylquinolones as antibacterial agents. Synthesis and structure-activity relationships” (J Med Chem, 1993)
In brackets after ≈: the same amount, converted by molar mass.

How the values were obtained:
Format in all cases: functional
Bacillus cereus = experiment: Minimum inhibitory concentration (MIC) preventing growth of Bacillus cereus
Bacillus subtilis = experiment: Minimum inhibitory concentration (MIC) preventing growth of Bacillus subtilis
Escherichia coli = experiment: Minimum inhibitory concentration (MIC)preventing growth of Escherichia coli
Klebsiella pneumoniae = experiment: Minimum inhibitory concentration (MIC)preventing growth of Klebsiella pneumoniae
Morganella morganii = experiment: Minimum inhibitory concentration (MIC) preventing growth of Morganella morganii
Proteus vulgaris = experiment: Minimum inhibitory concentration (MIC) preventing growth of Proteus vulgaris
[1] = tested on: Staphylococcus epidermidis; experiment: Minimum inhibitory concentration (MIC) preventing growth of Staphylococcus epidermidis
Staphylococcus aureus = experiment: Minimum inhibitory concentration (MIC) preventing growth of […]
Enterococcus faecalis = experiment: Minimum inhibitory concentration (MIC) preventing growth of Streptococcus faecalis ATCC 10541
Enterobacter cloacae = experiment: Minimum inhibitory concentration (MIC)preventing growth of Enterobacter cloacae
Pseudomonas aeruginosa = experiment: Minimum inhibitory concentration (MIC)preventing growth of Pseudomonas aeruginosa

Structure (SMILES)	MIC (Bacillus cereus)	MIC (Bacillus subtilis)	MIC (Escherichia coli)	MIC (Klebsiella pneumoniae)	MIC (Morganella morganii)	MIC (Proteus vulgaris)	MIC [1]	MIC (Staphylococcus aureus)	MIC (Enterococcus faecalis)	MIC (Enterobacter cloacae)	MIC (Pseudomonas aeruginosa)
CC1(CN)CN(c2cc3c(cc2F)c(=O)c(C(=O)O)cn3C2CC2)C1	0.12 µg/mL (≈ 0.347 µM)	0.06 µg/mL (≈ 0.174 µM)	0.12 µg/mL (≈ 0.347 µM)	0.25 µg/mL (≈ 0.724 µM)	0.12 µg/mL (≈ 0.347 µM)	0.12 µg/mL (≈ 0.347 µM)	0.25 µg/mL (≈ 0.724 µM)	0.25 µg/mL (≈ 0.724 µM)	0.5 µg/mL (≈ 1.45 µM)	0.25 µg/mL (≈ 0.724 µM)	1 µg/mL (≈ 2.9 µM)
CC1(N)CN(c2cc3c(cc2F)c(=O)c2c(=O)[nH]sc2n3C2CC2)C1	0.03 µg/mL (≈ 0.0832 µM)	0.015 µg/mL (≈ 0.0416 µM)	0.015 µg/mL (≈ 0.0416 µM)	0.015 µg/mL (≈ 0.0416 µM)	0.015 µg/mL (≈ 0.0416 µM)	0.06 µg/mL (≈ 0.166 µM)	0.03 µg/mL (≈ 0.0832 µM)	0.06 µg/mL (≈ 0.166 µM)	0.12 µg/mL (≈ 0.333 µM)	0.015 µg/mL (≈ 0.0416 µM)	0.25 µg/mL (≈ 0.694 µM)
CNC1(C)CN(c2nc3c(cc2F)c(=O)c(C(=O)O)cn3C(C)(C)C)C1	0.06 µg/mL (≈ 0.166 µM)	0.015 µg/mL (≈ 0.0414 µM)	0.06 µg/mL (≈ 0.166 µM)	0.015 µg/mL (≈ 0.0414 µM)	0.25 µg/mL (≈ 0.69 µM)	0.25 µg/mL (≈ 0.69 µM)	0.12 µg/mL (≈ 0.331 µM)	0.12 µg/mL (≈ 0.331 µM)	1 µg/mL (≈ 2.76 µM)	0.12 µg/mL (≈ 0.331 µM)	2 µg/mL (≈ 5.52 µM)
CN(C)C1CN(c2cc3c(cc2F)c(=O)c2c(=O)[nH]sc2n3C2CC2)C1	0.12 µg/mL (≈ 0.32 µM)	0.03 µg/mL (≈ 0.0801 µM)	0.03 µg/mL (≈ 0.0801 µM)	0.06 µg/mL (≈ 0.16 µM)	0.06 µg/mL (≈ 0.16 µM)	0.06 µg/mL (≈ 0.16 µM)	0.06 µg/mL (≈ 0.16 µM)	0.06 µg/mL (≈ 0.16 µM)	0.5 µg/mL (≈ 1.34 µM)	0.06 µg/mL (≈ 0.16 µM)	1 µg/mL (≈ 2.67 µM)
Nc1c(F)c(N2CC(N)C2)c(F)c2c1c(=O)c(C(=O)O)cn2C1CC1	0.015 µg/mL (≈ 0.0428 µM)	0.015 µg/mL (≈ 0.0428 µM)	0.015 µg/mL (≈ 0.0428 µM)	0.015 µg/mL (≈ 0.0428 µM)	0.015 µg/mL (≈ 0.0428 µM)	0.06 µg/mL (≈ 0.171 µM)	0.12 µg/mL (≈ 0.343 µM)	0.06 µg/mL (≈ 0.171 µM)	0.25 µg/mL (≈ 0.714 µM)	0.015 µg/mL (≈ 0.0428 µM)	0.25 µg/mL (≈ 0.714 µM)
O=C(O)c1cn(C2CC2)c2cc(N3CC(O)C3)c(F)cc2c1=O	0.12 µg/mL (≈ 0.377 µM)	0.015 µg/mL (≈ 0.0471 µM)	0.12 µg/mL (≈ 0.377 µM)	0.12 µg/mL (≈ 0.377 µM)	0.25 µg/mL (≈ 0.785 µM)	0.12 µg/mL (≈ 0.377 µM)	0.12 µg/mL (≈ 0.377 µM)	0.12 µg/mL (≈ 0.377 µM)	1 µg/mL (≈ 3.14 µM)	0.12 µg/mL (≈ 0.377 µM)	2 µg/mL (≈ 6.28 µM)
CCC1(O)CN(c2c(F)cc3c(=O)c(C(=O)O)cn(C4CC4)c3c2F)C1	0.5 µg/mL (≈ 1.37 µM)	0.06 µg/mL (≈ 0.165 µM)	0.25 µg/mL (≈ 0.686 µM)	0.12 µg/mL (≈ 0.329 µM)	0.5 µg/mL (≈ 1.37 µM)	0.25 µg/mL (≈ 0.686 µM)	0.25 µg/mL (≈ 0.686 µM)	0.5 µg/mL (≈ 1.37 µM)	1 µg/mL (≈ 2.74 µM)	0.5 µg/mL (≈ 1.37 µM)	2 µg/mL (≈ 5.49 µM)
CC1(N)CN(c2cc3c(cc2F)c(=O)c(C(=O)O)cn3CCF)C1	1 µg/mL (≈ 2.96 µM)	0.25 µg/mL (≈ 0.741 µM)	0.5 µg/mL (≈ 1.48 µM)	0.5 µg/mL (≈ 1.48 µM)	0.5 µg/mL (≈ 1.48 µM)	1 µg/mL (≈ 2.96 µM)	1 µg/mL (≈ 2.96 µM)	1 µg/mL (≈ 2.96 µM)	2 µg/mL (≈ 5.93 µM)	1 µg/mL (≈ 2.96 µM)	4 µg/mL (≈ 11.9 µM)
O=C(O)c1cn(C2CC2)c2c(F)c(N3CC(N4CCCC4)C3)c(F)cc2c1=O	0.12 µg/mL (≈ 0.308 µM)	0.06 µg/mL (≈ 0.154 µM)	0.06 µg/mL (≈ 0.154 µM)	0.12 µg/mL (≈ 0.308 µM)	0.12 µg/mL (≈ 0.308 µM)	0.25 µg/mL (≈ 0.642 µM)	0.12 µg/mL (≈ 0.308 µM)	0.12 µg/mL (≈ 0.308 µM)	0.5 µg/mL (≈ 1.28 µM)	0.06 µg/mL (≈ 0.154 µM)	2 µg/mL (≈ 5.14 µM)
CC1(N)CN(c2cc3c(cc2F)c(=O)c(C(=O)O)cn3-c2ccc(F)cc2)C1	0.12 µg/mL (≈ 0.311 µM)	0.06 µg/mL (≈ 0.156 µM)	0.12 µg/mL (≈ 0.311 µM)	0.12 µg/mL (≈ 0.311 µM)	0.25 µg/mL (≈ 0.649 µM)	0.25 µg/mL (≈ 0.649 µM)	0.12 µg/mL (≈ 0.311 µM)	0.12 µg/mL (≈ 0.311 µM)	2 µg/mL (≈ 5.19 µM)	0.12 µg/mL (≈ 0.311 µM)	2 µg/mL (≈ 5.19 µM)
CCn1cc(C(=O)O)c(=O)c2c(N)c(F)c(N3CC(N)C3)c(F)c21	0.25 µg/mL (≈ 0.739 µM)	2 µg/mL (≈ 5.91 µM)	0.12 µg/mL (≈ 0.355 µM)	0.25 µg/mL (≈ 0.739 µM)	0.12 µg/mL (≈ 0.355 µM)	0.5 µg/mL (≈ 1.48 µM)	0.5 µg/mL (≈ 1.48 µM)	0.5 µg/mL (≈ 1.48 µM)	0.25 µg/mL (≈ 0.739 µM)	0.12 µg/mL (≈ 0.355 µM)	1 µg/mL (≈ 2.96 µM)
CC1(N)CN(c2c(F)cc3c(=O)c(C(=O)O)cn(-c4ccc(F)cc4F)c3c2F)C1	0.5 µg/mL (≈ 1.19 µM)	0.25 µg/mL (≈ 0.593 µM)	0.25 µg/mL (≈ 0.593 µM)	0.5 µg/mL (≈ 1.19 µM)	0.5 µg/mL (≈ 1.19 µM)	0.5 µg/mL (≈ 1.19 µM)	0.5 µg/mL (≈ 1.19 µM)	0.25 µg/mL (≈ 0.593 µM)	0.25 µg/mL (≈ 0.593 µM)	0.25 µg/mL (≈ 0.593 µM)	2 µg/mL (≈ 4.75 µM)
CC1(N)CN(c2nc3c(cc2F)c(=O)c(C(=O)O)cn3CCF)C1	0.5 µg/mL (≈ 1.48 µM)	0.12 µg/mL (≈ 0.355 µM)	0.06 µg/mL (≈ 0.177 µM)	0.06 µg/mL (≈ 0.177 µM)	0.12 µg/mL (≈ 0.355 µM)	1 µg/mL (≈ 2.96 µM)	0.5 µg/mL (≈ 1.48 µM)	0.5 µg/mL (≈ 1.48 µM)	2 µg/mL (≈ 5.91 µM)	0.12 µg/mL (≈ 0.355 µM)	2 µg/mL (≈ 5.91 µM)
